Test results as given in patent publication US20240336981A1, “PANELS AND METHODS FOR DIAGNOSING AND TREATING LUNG CANCER” (The Broad Institute, Inc., priority 2021, published 2024).

Tests used:
EGFR = EGFR (Homo sapiens, UniProt P00533); conditions: cited from earlier work
HER-3 = HER-3 (Homo sapiens, UniProt P21860); conditions: cited from earlier work
non-CDK kinases = conditions: with the exception of GSK3beta; cited from earlier work
CDK3 and CDK7 = conditions: cited from earlier work
[1] = system: lung adenocarcinoma (LUAD) cell lines; assay: Proliferation assay (IncuCyte confluency); format: cell-based; conditions: for proliferation (response) of S3 cell lines compared to the S4 and unassigned cell lines: S3 lines HCC78, HCC827, NCIH1975, NCIH1838, 4 days
Description: lung adenocarcinoma (LUAD) cell lines were used (HCC78, HCC827, NCIH1975, NCIH1838, NCIH1395, NCIH1833, NCIH1755, ABC1, CALU3). Tests for mycoplasma contamination were negative. Cells were maintained in RPMI 1640 medium supplemented with 10% fetal bovine serum and 1% penicillin-streptomycin.
The media and drugs were replenished every 2-3 days. Continuous cell growth was monitored in 96-well plates every 3 hr for 4 days using the IncuCyte Kinetic Imaging System. The relative confluency was analyzed using IncuCyte software. The reported response percentage for each cell line was calculated as the percent of confluency compared to their DMSO treated counterpart. Proliferation assays were repeated 4 times.

HER2 = HER2 (Homo sapiens, UniProt P04626); conditions: in vitro; cited from earlier work
HER4 = HER4 (Homo sapiens, UniProt Q15303); conditions: in vitro; cited from earlier work
BLK = BLK (Homo sapiens, UniProt P51451); conditions: in vitro; cited from earlier work
PD-L1 = assay: Immunofluorescence staining with anti-PD-L1 antibody; format: cell-based; conditions: tivantinib-treated cells vs controls; all subtypes; quantified with ImageJ
Description: The following antibody was used for immunofluorescence staining—Recombinant Alexa Fluor® 488 Anti-PD-L1 antibody (ab209959). […] Cells were then fixed in 4% paraformaldehyde for 10 min and washed twice in cold PBS. Fluor® 488 Anti-PD-L1 antibody was added for 1 hr incubation in a light protected environment at room temperature followed by staining nuclei with DAPI. Fluorescence images were captured using Invitrogen™ EVOS™ FL Imaging System by Thermo Fisher Scientific. The fluorescent increase was further quantified using ImageJ software.

[2] = system: mutant forms of EGFR (T790M, L858R, and exon 19 deletion); conditions: exon 19 deletion vs wild-type; cited from earlier work
[3] = system: tumor-bearing animal models such as breast, colon, lung cancers, and hepatocellular carcinoma; conditions: in vivo; cited from earlier work

Sequence of HER2 (P04626 23-1255): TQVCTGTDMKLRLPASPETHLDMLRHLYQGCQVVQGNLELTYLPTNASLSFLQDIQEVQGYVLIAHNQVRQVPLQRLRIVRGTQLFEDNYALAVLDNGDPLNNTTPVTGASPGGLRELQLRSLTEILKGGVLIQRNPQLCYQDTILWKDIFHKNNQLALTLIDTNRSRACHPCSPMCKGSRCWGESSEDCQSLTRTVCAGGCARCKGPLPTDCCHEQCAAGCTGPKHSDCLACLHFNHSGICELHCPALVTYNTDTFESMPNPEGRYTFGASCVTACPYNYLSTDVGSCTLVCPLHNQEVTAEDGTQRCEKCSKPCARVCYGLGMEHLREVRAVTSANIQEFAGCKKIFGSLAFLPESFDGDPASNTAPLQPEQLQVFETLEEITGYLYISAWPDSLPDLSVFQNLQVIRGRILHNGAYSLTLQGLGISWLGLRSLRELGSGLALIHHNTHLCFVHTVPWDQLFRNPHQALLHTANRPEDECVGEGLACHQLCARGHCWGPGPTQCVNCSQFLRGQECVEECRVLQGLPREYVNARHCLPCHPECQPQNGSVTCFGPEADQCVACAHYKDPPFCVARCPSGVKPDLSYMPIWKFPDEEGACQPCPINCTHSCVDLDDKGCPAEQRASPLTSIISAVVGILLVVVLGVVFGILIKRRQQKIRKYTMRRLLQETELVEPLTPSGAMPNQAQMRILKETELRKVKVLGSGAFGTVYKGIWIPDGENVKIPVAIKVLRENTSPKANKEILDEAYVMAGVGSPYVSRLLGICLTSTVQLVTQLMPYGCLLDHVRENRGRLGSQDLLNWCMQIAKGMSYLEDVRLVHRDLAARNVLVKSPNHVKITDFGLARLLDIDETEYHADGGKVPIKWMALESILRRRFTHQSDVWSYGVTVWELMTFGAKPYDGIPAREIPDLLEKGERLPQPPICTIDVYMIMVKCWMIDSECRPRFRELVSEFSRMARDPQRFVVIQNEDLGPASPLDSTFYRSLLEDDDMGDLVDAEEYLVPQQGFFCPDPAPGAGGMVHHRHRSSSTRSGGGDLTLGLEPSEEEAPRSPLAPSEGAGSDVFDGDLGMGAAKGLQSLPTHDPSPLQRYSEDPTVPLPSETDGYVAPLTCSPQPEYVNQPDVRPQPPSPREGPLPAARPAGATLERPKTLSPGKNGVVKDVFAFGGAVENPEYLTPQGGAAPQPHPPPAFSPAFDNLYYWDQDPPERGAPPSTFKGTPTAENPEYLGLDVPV
Sequence of EGFR (P00533 25-1210): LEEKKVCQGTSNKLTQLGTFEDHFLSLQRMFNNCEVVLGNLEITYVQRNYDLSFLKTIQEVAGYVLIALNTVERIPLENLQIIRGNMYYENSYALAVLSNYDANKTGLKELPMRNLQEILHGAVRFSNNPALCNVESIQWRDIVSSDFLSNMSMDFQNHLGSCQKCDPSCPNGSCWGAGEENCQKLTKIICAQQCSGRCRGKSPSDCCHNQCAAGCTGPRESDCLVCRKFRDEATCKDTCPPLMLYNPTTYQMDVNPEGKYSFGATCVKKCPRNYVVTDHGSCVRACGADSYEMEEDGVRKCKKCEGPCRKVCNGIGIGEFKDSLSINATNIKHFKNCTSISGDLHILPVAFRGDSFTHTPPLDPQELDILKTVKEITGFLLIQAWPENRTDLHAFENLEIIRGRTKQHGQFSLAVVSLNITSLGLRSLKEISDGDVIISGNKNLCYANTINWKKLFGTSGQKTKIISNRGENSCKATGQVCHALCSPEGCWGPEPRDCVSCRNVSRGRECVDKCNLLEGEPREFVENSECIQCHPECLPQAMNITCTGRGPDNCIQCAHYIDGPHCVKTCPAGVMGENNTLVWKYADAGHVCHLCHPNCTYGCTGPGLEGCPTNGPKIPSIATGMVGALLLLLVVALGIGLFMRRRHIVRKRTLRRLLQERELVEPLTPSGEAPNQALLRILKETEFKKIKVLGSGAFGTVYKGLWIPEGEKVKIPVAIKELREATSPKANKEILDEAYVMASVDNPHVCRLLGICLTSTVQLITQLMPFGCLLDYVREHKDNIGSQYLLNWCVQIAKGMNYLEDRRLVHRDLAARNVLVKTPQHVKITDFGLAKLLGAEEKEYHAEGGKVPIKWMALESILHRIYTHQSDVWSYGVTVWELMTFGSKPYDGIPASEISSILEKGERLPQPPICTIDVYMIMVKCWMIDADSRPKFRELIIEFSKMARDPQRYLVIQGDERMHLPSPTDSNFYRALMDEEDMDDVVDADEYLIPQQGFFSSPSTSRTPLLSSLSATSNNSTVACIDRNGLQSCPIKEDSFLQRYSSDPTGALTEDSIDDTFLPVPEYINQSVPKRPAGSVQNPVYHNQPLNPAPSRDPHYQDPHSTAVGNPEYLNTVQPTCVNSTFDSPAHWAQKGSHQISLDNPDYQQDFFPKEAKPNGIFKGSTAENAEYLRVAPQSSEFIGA
Sequence of BLK (P51451 whole entry): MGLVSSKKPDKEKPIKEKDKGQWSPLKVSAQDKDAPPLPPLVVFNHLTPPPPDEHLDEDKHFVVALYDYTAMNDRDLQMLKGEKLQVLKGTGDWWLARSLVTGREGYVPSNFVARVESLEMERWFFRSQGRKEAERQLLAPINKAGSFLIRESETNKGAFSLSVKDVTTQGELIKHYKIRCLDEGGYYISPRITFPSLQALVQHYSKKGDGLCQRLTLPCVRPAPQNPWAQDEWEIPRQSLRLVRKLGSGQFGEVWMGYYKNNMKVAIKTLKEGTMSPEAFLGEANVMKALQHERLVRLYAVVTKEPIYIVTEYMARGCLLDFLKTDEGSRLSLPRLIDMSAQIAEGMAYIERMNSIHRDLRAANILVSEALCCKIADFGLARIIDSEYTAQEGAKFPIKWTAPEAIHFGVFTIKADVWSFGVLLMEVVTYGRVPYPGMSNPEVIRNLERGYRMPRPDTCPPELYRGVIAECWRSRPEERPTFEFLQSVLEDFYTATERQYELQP
Sequence of HER4 (Q15303 26-1308): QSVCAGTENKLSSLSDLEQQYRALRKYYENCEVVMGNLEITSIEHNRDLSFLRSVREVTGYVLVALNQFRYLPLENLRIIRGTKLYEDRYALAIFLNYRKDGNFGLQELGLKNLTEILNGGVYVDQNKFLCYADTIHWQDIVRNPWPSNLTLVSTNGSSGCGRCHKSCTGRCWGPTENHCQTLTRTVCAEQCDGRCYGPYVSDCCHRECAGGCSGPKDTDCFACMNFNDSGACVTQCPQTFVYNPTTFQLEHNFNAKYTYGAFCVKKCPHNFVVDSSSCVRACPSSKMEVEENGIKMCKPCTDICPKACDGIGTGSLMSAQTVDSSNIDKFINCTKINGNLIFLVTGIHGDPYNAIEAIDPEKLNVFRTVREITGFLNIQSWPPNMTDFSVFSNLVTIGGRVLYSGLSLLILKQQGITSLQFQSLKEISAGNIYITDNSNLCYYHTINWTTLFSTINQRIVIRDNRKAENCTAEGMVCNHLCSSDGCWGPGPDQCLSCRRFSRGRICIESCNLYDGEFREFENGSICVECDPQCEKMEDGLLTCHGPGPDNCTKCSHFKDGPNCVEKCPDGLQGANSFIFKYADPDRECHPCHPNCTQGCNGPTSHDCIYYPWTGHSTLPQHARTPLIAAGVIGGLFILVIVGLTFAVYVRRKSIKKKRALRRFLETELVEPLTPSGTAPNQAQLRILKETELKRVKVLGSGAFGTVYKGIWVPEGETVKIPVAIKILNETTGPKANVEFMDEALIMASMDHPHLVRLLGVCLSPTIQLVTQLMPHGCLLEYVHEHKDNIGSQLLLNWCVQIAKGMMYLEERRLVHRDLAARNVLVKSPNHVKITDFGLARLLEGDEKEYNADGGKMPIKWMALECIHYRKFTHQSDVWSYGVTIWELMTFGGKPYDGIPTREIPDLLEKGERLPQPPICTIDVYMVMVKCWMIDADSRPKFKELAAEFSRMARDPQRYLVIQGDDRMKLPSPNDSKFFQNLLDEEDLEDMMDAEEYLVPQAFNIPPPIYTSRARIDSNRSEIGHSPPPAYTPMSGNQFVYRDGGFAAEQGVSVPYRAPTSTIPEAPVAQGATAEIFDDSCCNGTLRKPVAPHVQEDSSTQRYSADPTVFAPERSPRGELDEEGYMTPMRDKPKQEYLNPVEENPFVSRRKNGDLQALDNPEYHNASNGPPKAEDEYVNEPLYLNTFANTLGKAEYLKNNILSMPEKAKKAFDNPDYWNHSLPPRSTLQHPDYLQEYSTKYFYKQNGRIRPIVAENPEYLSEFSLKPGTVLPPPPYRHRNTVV

CNC(=O)c1ccc(-c2cnc3ncc(Cc4ccc5ncccc5c4)n3n2)cc1F [Capmatinib]
activity against EGFR (EGFR): ATP-competitive small molecule. Targets - c-Met. Little activity against EGFR and HER- 3.
activity against HER-3 (HER-3): ATP-competitive small molecule. Targets - c-Met. Little activity against EGFR and HER- 3.

O=C(NC1CCNCC1)c1n[nH]cc1NC(=O)c1c(Cl)cccc1Cl [AT7519]
activity against non-CDK kinases tested (non-CDK kinases): inactive
potency against other CDKs tested (CDK3 and CDK7): lower potency

CCNc1cc(N[C@H]2CC[C@H](O)CC2)nc(Nc2ccc3c(ccn3Cc3ccccc3)c2)n1 [CINK4]
proliferation (response) of S3 cell lines compared to the S4 and unassigned cell lines ([1]; CDK4/6 Inhibitor IV 1.5 μM (CDK4 specific concentration), confluency vs DMSO): significantly lower proliferation (higher response)

CC(=O)c1c(C)c2cnc(Nc3ccc(N4CCNCC4)cn3)nc2n(C2CCCC2)c1=O [Palbociclib]
proliferation (response) of S3 cell lines compared to the S4 and unassigned cell lines ([1]; Palbociclib 11 nM (CDK4 concentration), confluency vs DMSO): significantly lower proliferation (higher response)
proliferation at higher doses ([1]; higher doses of palbociclib (CDK4/6 concentration 16 nM), all cell lines): inhibited proliferation in all cell lines

C=CC(=O)Nc1cc(Nc2ncc(C(=O)OC(C)C)c(-c3cn(C)c4ccccc34)n2)c(OC)cc1N(C)CCN(C)C [Mobocertinib]
IC50 (HER2): < 2 nM
IC50 (HER4): < 2 nM
IC50 (BLK): < 2 nM

O=C1NC(=O)[C@@H](c2cn3c4c(cccc24)CCC3)[C@@H]1c1c[nH]c2ccccc12 [Tivantinib]
response of S3 compared to the other assigned groups ([1]; Tivantinib 3 μM, 4-day proliferation assay, confluency vs DMSO): significantly increased response
PD-L1 levels in response to c-MET inhibition (PD-L1): significant increase

C=CC(=O)Nc1cc(Nc2nccc(-c3cn(C)c4ccccc34)n2)c(OC)cc1N(C)CCN(C)C [Osimertinib]
concentrations for binding mutant EGFR lower than wild-type [2]: approximately 9 fold

Cc1cccc(-c2nn3c(c2-c2ccnc4ccc(C(N)=O)cc24)CCC3)n1 [Galunisertib]
antitumor activity [3]: antitumor activity
